# Measurements: EP0402469B1, “CATECHOL COMPOUNDS, PROCESS FOR THEIR PREPARATION AND PHARMACEUTICAL PREPARATION CONTAINING SAME” (TERUMO KABUSHIKI KAISHA, priority 1988, dated 1989)
# System: Wistar type male rat
# Assay: Activity to resist growth of ulcer (ethanol hydrochloric acid induced gastric injury)
# Assay type: in vivo
# Conditions: 30mg/kg orally, 1 hour before oral ethanol hydrochloric acid, ulcer index 1 hour later
# Procedure: A Wistar type male rat (body weight 150 to 200 g) was fasted for 24 hours, then orally administered with a catechol compound according with the present invention and, on elapse of 1 hour thereafter, orally administered with ethanol hydrochloric acid (having 150 mM hydrochloric acid contained in 60% ethanol) at a rate of 0.5 ml/100 g of body weight.
# After 1 hour following the oral administration of ethanol hydrochloric acid, the rat was sacrified with ether. The stomach was excited from the corpse, treated with formalin, and visually examined to measure lengths of injuries generated on the glanular part of the stomach. The total of injuries was reported as an ulcer index of the rat in question.
# The term "ratio of inhibiting formation of ulcer (%)" as used in the table refers to a numerical value obtained by subtracting the ulcer index of a rat orally administered with a given catechol compound according with the present invention from the ulcer index of a rat not orally administered with catechol compound and multiplying the difference by 100.
row,SMILES,Ratio of inhibiting formation of ulcer (%)
1,"CCCCCCCCCC(O)CC(=O)CCc1ccc(O)c(O)c1 (stereo not drawn) [Example 4, 1-(3,4-hydroxyphenyl)-5-hydroxytetradecan-3-one]",84.4%

# Same assay, conditions: 30mg/kg orally, 1 hour before oral ethanol hydrochloric acid, ulcer index 1 hour later, read-out: Ratio of inhibiting formation of ulcer (%)
row,SMILES,inhibition in vivo at 30 mg/kg
1,"CCCCCCCCCC(=O)CC(=O)C=Cc1ccc(O)c(O)c1 [Example 1, 1-(3,4-dihydroxyphenyl)-1-tetradecen-3,5-dione]",82.4%
2,"CCCCCCCCCC(=O)CC(=O)CCc1ccc(O)c(O)c1 [Example 2, 1-(3,4-dihydroxyphenyl)-3,5-tetradecane dione]",92.1%
3,"CCCCCCCC(=O)CC(=O)C=Cc1ccc(O)c(O)c1 [Example 7, 1-(3,4-dihydroxyphenyl)-1-dodecen-3,5-dione]",85.7%
4,"CCCCCCCC(=O)CC(=O)CCc1ccc(O)c(O)c1 [Example 8, 1-(3,4-dihydroxyphenyl)-3,5-dodecane dione]",88.3%
5,"CCCCCC(=O)CC(=O)C=Cc1ccc(O)c(O)c1 [Example 9, 1-(3,4-dihydroxyphenyl)-1-decen-3,5-dione]",77.9%
6,"CCCCCC(=O)CC(=O)CCc1ccc(O)c(O)c1 [Example 10, 1-(3,4-dihydroxyphenyl)-3,5-decane dione]",84.6%
7,"CCCC(=O)CC(=O)C=Cc1ccc(O)c(O)c1 [Example 11, 1-(3,4-dihydroxyphenyl)-1-octen-3,5-dione]",58.7%
8,"CCCC(=O)CC(=O)CCc1ccc(O)c(O)c1 [Example 12, 1-(3,4-dihydroxyphenyl)-3,5-octadione]",81.8%
